Laboratory results published in patent publication US9108983B2, “Pyrrole compounds, a process for their preparation and pharmaceutical compositions containing them” (LES LABORATOIRES SERVIER, priority 2013, dated 2015).
Structures can show the parent of a compound that is named as a salt. Where two headings read alike, the source gives them in different places.

Columns and labels:
[1] = test system: RS4;11 leukaemia tumour line; experiment: In vitro cytotoxicity (Microculture Tetrazolium Assay); format: cell-based; conditions: RS4;11 cells, exposed for 48 hours, cell viability, read-out: IC50 (nM) MTT RS4;11
Description: The cytotoxicity studies were carried out on the RS4;11 leukaemia tumour line.
The cells are distributed onto microplates and exposed to the test compounds for 48 hours.
The cell viability is then quantified by a colorimetric assay, the Microculture Tetrazolium Assay (Cancer Res., 1987, 47, 939-942).

[2] = molecular target: Bcl-2 protein (histag-Bcl-2, UniProtKB P10415) (Homo sapiens (Human), UniProt P10415); experiment: Inhibition of Bcl-2 by the fluorescence polarisation technique; format: binding; conditions: incubation for 2 hours
In short: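 In pH 7.4 buffer (Hepes 10 mM, NaCl 150 mM, Tween20 0.05%), test compounds at increasing concentrations competed with a fluorescein peptide (1.00×10^−8 M final) for histag-Bcl-2 (2.50×10^−8 M final). Readout was fluorescence polarisation after a 2 h incubation.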

Sequence of Bcl-2 protein (P10415 whole entry): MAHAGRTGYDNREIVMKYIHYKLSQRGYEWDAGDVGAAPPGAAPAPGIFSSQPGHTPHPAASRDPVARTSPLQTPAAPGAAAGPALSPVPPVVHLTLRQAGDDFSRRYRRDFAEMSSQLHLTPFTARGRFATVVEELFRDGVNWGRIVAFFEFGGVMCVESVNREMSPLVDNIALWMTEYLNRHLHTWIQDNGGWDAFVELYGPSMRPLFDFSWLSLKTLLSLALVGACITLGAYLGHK

Compound | IC50 ([2]; read-out: IC50 (nM) Bcl-2 FP) | IC50 ([1]; Homo sapiens, RS4-11, 48 h) | IC50 ([1]; Homo sapiens) | IC50 ([2]; IC50 (nM) Bcl-2 FP) | IC50 [1]
Cc1c(C(=O)N(c2ccc(O)cc2)c2cnc3c(ccn3C)c2)cc(-c2cc3c(cc2C(=O)N2Cc4ccccc4C[C@H]2CN2CCOCC2)OCO3)n1C [Example 44, N-(4-Hydroxyphenyl)-1,2-dimethyl-N-(1-methyl-1H-pyrrolo[2,3-b]-pyridin-5-yl)-5-(6-{[(3S)-3-(morpholin-4-ylmethyl)-3,4-dihydroisoquinolin-2(1H)-yl]carbonyl}-1,3-benzodioxol-5-yl)-1H-pyrrole-3-carboxamide hydrochloride] | 3 nM | 5.41 nM |  |  | 
Cc1c(C(=O)N(C)c2ccc(O)cc2)cc(-c2cc(CCNC(=O)Oc3ccccc3)ccc2C(=O)N2Cc3ccccc3C[C@H]2C)n1C [Example 45, Phenyl[2-(3-{4-[(4-hydroxyphenyl)(methyl)carbamoyl]-1,5-dimethyl-1H-pyrrol-2-yl}-4-{[(3R)-3-methyl-3,4-dihydroisoquinolin-2(1H)-yl]carbonyl}-phenyl)ethyl]carbamate] |  |  | 403 nM | 38.9 nM | 
Cc1c(C(=O)N(C)c2ccc(O)cc2)cc(-c2cc(CCNC(=O)COc3ccccc3)ccc2C(=O)N2Cc3ccccc3C[C@H]2C)n1C [Example 46, N-(4-Hydroxyphenyl)-N,1,2-trimethyl-5-(2-{[(3R)-3-methyl-3,4-dihydroisoquinolin-2(1H)-yl]carbonyl}-5-{2-[(phenoxyacetyl)amino]ethyl}phenyl)-1H-pyrrole-3-carboxamide] | 76.6 nM | > 600 nM |  |  | 
Cc1c(C(=O)N(c2ccc(O)cc2)c2cnc3c(c2)CCN3C)cc(-c2cc3c(cc2C(=O)N2Cc4ccccc4C[C@H]2CN2CCOCC2)OCO3)n1C [Example 49, N-(4-Hydroxyphenyl)-1,2-dimethyl-N-(1-methyl-2,3-dihydro-1H-pyrrolo[2,3-b]pyridin-5-yl)-5-(6-{[(3S)-3-(morpholin-4-ylmethyl)-3,4-dihydroisoquinolin-2(1H)-yl]carbonyl}-1,3-benzodioxol-5-yl)-1H-pyrrole-3-carboxamide dihyrochloride] | 4 nM |  |  |  | 14.1 nM
Cc1c(C(=O)N(C)c2ccc(O)cc2)cc(-c2cc(CNC(=O)NCc3ccccc3)ccc2C(=O)N2Cc3ccccc3C[C@H]2C)n1C [Example 51, 5-(5-{[(Benzylcarbamoyl)amino]methyl}-2-{[(3R)-3-methyl-3,4-dihydroisoquinolin-2(1H)-yl]carbonyl}phenyl)-N-(4-hydroxyphenyl)-N,1,2-trimethyl-1H-pyrrole-3-carboxamide] | 26.7 nM | 354 nM |  |  | 
Cc1c(C(=O)N(C)c2ccc(O)cc2)cc(-c2cc(CNC(=O)COc3ccccc3)ccc2C(=O)N2Cc3ccccc3C[C@H]2C)n1C [Example 53, N-(4-Hydroxyphenyl)-N,1,2-trimethyl-5-(2-{[(3R)-3-methyl-3,4-dihydroisoquinolin-2(1H)-yl]carbonyl}-5-{[(phenoxyacetyl)amino]methyl}phenyl)-1H-pyrrole-3-carboxamide] | 43.5 nM | 293 nM |  |  | 
Cc1c(C(=O)N(c2ccc(O)cc2)c2cnc3c(ccn3C)c2)cc(-c2cc(CNC(=O)COc3ccccc3)ccc2C(=O)N2Cc3ccccc3C[C@H]2C)n1C [Example 54, N-(4-Hydroxyphenyl)-1,2-dimethyl-5-(2-{[(3R)-3-methyl-3,4-dihydroisoquinolin-2(1H)-yl]carbonyl}-5-{[(phenoxyacetyl)amino]methyl}phenyl)-N-(1-methyl-1H-pyrrolo[2,3-b]pyridin-5-yl)-1H-pyrrole-3-carboxamide] | 18 nM | 30.5 nM |  |  | 
Cc1c(C(=O)N(C)c2ccc(O)cc2)cc(-c2cc(CCNS(=O)(=O)CCc3ccc(F)cc3)ccc2C(=O)N2Cc3ccccc3C[C@H]2C)n1C [Example 55, 5-(5-[2-({[2-(4-Fluorophenyl)ethyl]sulphonyl}amino)ethyl]-2-{[(3R)-3-methyl-3,4-dihydroisoquinolin-2(1H)-yl]carbonyl}phenyl)-N-(4-hydroxyphenyl)-N,1,2-trimethyl-1H-pyrrole-3-carboxamide] | 210 nM | > 600 nM |  |  | 
Cc1c(C(=O)N(C)c2ccc(O)cc2)cc(-c2cc(CCNC(=O)NCc3ccccc3)ccc2C(=O)N2Cc3ccccc3C[C@H]2C)n1C [Example 56, 5-(5-{2-[(Benzylcarbamoyl)amino]ethyl}-2-{[(3R)-3-methyl-3,4-dihydroisoquinolin-2(1H)-yl]carbonyl}phenyl)-N-(4-hydroxyphenyl)-N,1,2-trimethyl-1H-pyrrole-3-carboxamide] | 75 nM | > 600 nM |  |  | 
Cc1c(C(=O)N(C)c2ccc(O)cc2)cc(-c2cc(CCNC(=O)Cc3ccccc3)ccc2C(=O)N2Cc3ccccc3C[C@H]2C)n1C [Example 57, N-(4-Hydroxyphenyl)-N,1,2-trimethyl-5-(2-{[(3R)-3-methyl-3,4-dihydroisoquinolin-2(1H)-yl]carbonyl}-5-{2-[(phenylacetyl)amino]ethyl}phenyl)-1H-pyrrole-3-carboxamide] | 80 nM | > 600 nM |  |  | 
Cc1c(C(=O)N(C)c2ccc(O)cc2)cc(-c2cc(CCNC(=O)Nc3ccccc3)ccc2C(=O)N2Cc3ccccc3C[C@H]2C)n1C [Example 58, N-(4-Hydroxyphenyl)-N,1,2-trimethyl-5-(2-{[(3R)-3-methyl-3,4-dihydroisoquinolin-2(1H)-yl]carbonyl}-5-{2-[(phenylcarbamoyl)amino]ethyl}phenyl)-1H-pyrrole-3-carboxamide] | 133 nM | > 600 nM |  |  | 
Cc1c(C(=O)N(C)c2ccc(O)cc2)cc(-c2ccc(CNS(=O)(=O)CCc3ccc(F)cc3)cc2C(=O)N2Cc3ccccc3C[C@H]2C)n1C [Example 59, 5-(4-[({[2-(4-Fluorophenyl)ethyl]sulphonyl}amino)methyl]-2-{[(3R)-3-methyl-3,4-dihydroisoquinolin-2(1H)-yl]carbonyl}phenyl)-N-(4-hydroxyphenyl)-N,1,2-trimethyl-1H-pyrrole-3-carboxamide] | 134 nM | > 600 nM |  |  | 

Continued, in another order:

IC50 ([2]; read-out: IC50 (nM) Bcl-2 FP) | Compound | IC50 ([1]; Homo sapiens, RS4-11, 48 h) | IC50 ([1]; Homo sapiens) | IC50 ([2]; IC50 (nM) Bcl-2 FP) | IC50 [1]
5.2 nM | Cc1c(C(=O)N(c2ccc(O)cc2)c2cnc3c(ccn3C)c2)cc(-c2cc3c(cc2C(=O)N2Cc4ccccc4C[C@H]2C)OCO3)n1C [Example 42, N-(4-Hydroxyphenyl)-1,2-dimethyl-5-(6-{[(3R)-3-methyl-3,4-dihydroisoquinolin-2(1H)-yl]carbonyl}-1,3-benzodioxol-5-yl)-N-(1-methyl-1H-pyrrolo[2,3-b]pyridin-5-yl)-1H-pyrrole-3-carboxamide] | 4.36 nM |  |  | 
5.1 nM | Cc1c(C(=O)N(c2ccccc2)c2ccc(O)cc2)cc(-c2cc3c(cc2C(=O)N2Cc4ccccc4C[C@H]2C)OCO3)n1C [Example 43, N-(4-Hydroxyphenyl)-1,2-dimethyl-5-(6-{[(3R)-3-methyl-3,4-dihydroisoquinolin-2(1H)-yl]carbonyl}-1,3-benzodioxol-5-yl)-N-phenyl-1H-pyrrole-3-carboxamide] | 28.9 nM |  |  | 
4.4 nM | COc1ncc(N(C(=O)c2cc(-c3cc4c(cc3C(=O)N3Cc5ccccc5C[C@H]3C)OCO4)n(C)c2C)c2ccc(O)cc2)cn1 [Example 48, N-(4-Hydroxyphenyl)-N-(2-methoxypyrimidin-5-yl)-1,2-dimethyl-5-(6-{[(3R)-3-methyl-3,4-dihydroisoquinolin-2(1H)-yl]carbonyl}-1,3-benzodioxol-5-yl)-1H-pyrrole-3-carboxamide] | 14.9 nM |  |  | 
5.9 nM | COc1ncc(N(C(=O)c2cc(-c3cc4c(cc3C(=O)N3Cc5ccccc5C[C@H]3CN3CCOCC3)OCO4)n(C)c2C)c2ccc(O)cc2)cn1 [Example 50, N-(4-Hydroxyphenyl)-N-(2-methoxypyrimidin-5-yl)-1,2-dimethyl-5-(6-{[(3S)-3-(morpholin-4-ylmethyl)-3,4-dihydroisoquinolin-2(1H)-yl]carbonyl}-1,3-benzodioxol-5-yl)-1H-pyrrole-3-carboxamide hydrochloride] | 33.1 nM |  |  | 
28.9 nM | CCNC(=O)NCc1ccc(C(=O)N2Cc3ccccc3C[C@H]2C)c(-c2cc(C(=O)N(C)c3ccc(O)cc3)c(C)n2C)c1 [Example 52, 5-(5-{[(Ethylcarbamoyl)amino]methyl}-2-{[(3R)-3-methyl-3,4-dihydroisoquinolin-2(1H)-yl]carbonyl}phenyl)-N-(4-hydroxyphenyl)-N,1,2-trimethyl-1H-pyrrole-3-carboxamide] | 433 nM |  |  | 
4.5 nM | Cc1c(C(=O)N(c2ccncc2)c2ccc(O)cc2)cc(-c2cc3c(cc2C(=O)N2Cc4ccccc4C[C@H]2C)OCO3)n1C [Example 61, N-(4-Hydroxyphenyl)-1,2-dimethyl-5-(6-{[(3R)-3-methyl-3,4-dihydroisoquinolin-2(1H)-yl]carbonyl}-1,3-benzodioxol-5-yl)-N-(pyridin-4-yl)-1H-pyrrole-3-carboxamide hydrochloride] | 37.8 nM |  |  | 
14.3 nM | COc1cc(C(=O)N2Cc3ccccc3C[C@H]2C)c(-c2cc(C(=O)N(c3ccc(O)cc3)c3cnn(C)c3)c(C)n2C)cc1F [Example 62, 5-(5-Fluoro-4-methoxy-2-{[(3R)-3-methyl-3,4-dihydroisoquinolin-2(1H)-yl]carbonyl}phenyl)-N-(4-hydroxyphenyl)-1,2-dimethyl-N-(1-methyl-1H-pyrazol-4-yl)-1H-pyrrole-3-carboxamide] | 127 nM |  |  | 
5.1 nM | Cc1c(C(=O)N(c2ccc(O)cc2)c2cnc3c(ccn3C)c2)cc(-c2cc(Cl)ccc2C(=O)N2Cc3ccccc3C[C@H]2C)n1C [Example 63, 5-(5-Chloro-2-{[(3R)-3-methyl-3,4-dihydroisoquinolin-2(1H)-yl]-carbonyl}phenyl)-N-(4-hydroxyphenyl)-1,2-dimethyl-N-(1-methyl-1H-pyrrolo[2,3-b]-pyridin-5-yl)-1H-pyrrole-3-carboxamide] | 11.2 nM |  |  | 
